*1 amine or outer side, *2 acyl side, *3 side chain or, on linkers, in order; H or OH if unused. Where a SMILES comes first, the peptide text is derived from it. Bridges are numbered along the chain shown (N, C = ends). [ ]: non-standard residue; d: D form. The star is where a group is joined. N(4-F-Bzl)Gly = O=C(O)CNCc1ccc(F)cc1; αMeY = C[C@](N)(Cc1ccc(O)cc1)C(=O)O; Gly(cPent) = N[C@H](C(=O)O)C1CCCC1; αMeL = CC(C)C[C@](C)(N)C(=O)O; αMeV = CC(C)[C@](C)(N)C(=O)O; Thz = O=C(O)[C@@H]1CSCN1; X1 = O=C(CCC[*:2])[*:1]; Dap = NC[C@H](N)C(=O)O; Piv = CC(C)(C)C(=O)*
Legend:
[1] = Stability in simulated intestinal fluid (SIF); conditions: relative stability compared with SIF stability of oxytocin (8±1 min); SIF pH 6.8, pancreatin, 37° C.
Experimental: (§1) Simulated intestinal fluid (SIF). […] The solution was centrifuged, and syringe filtered before use.
(§2) Stability assay procedure. Stock solutions (1 mM) of test peptides were prepared in ddH2O. […] The peptide stock solution (30 μL) was added to the fluid, the mixture was vortexed and incubated at 37° C. […] All samples were centrifuged (5 min, 16,000×g) and stored at 4° C. before analysis.
(§3) RP-HPLC-UV(-MS) analysis of stability samples. […] 30 μL sample were injected on a Kromasil Classic C1S HPLC column (2.1×150 mm, 100 Å, 5 μm) equipped with a guard column (C18, 100 Å, 5 μm, 2.1 mm). […] Solvent A: 0.1% TFA in ddH2O. Solvent B: 0.08% TFA in ACN.
(§4) Data analysis. […] Peak areas (mAU×min) at individual time points were normalized to the mean value of time point zero (y(t0)=100%). To calculate compound half-lives (t1/2), a one-phase exponential decay function was fitted to normalized data points via a nonlinear regression in GraphPad Prism (Version 9) (GraphPad Software Inc., La Jolla, California, USA). The following constraints were applied: (i) y(t0) constant equal to 100, (ii) plateau constant equal to 0.

[2] = target: T1, Human OTR (Homo sapiens, UniProt P30559); experiment: IP-1 accumulation in HEK293 cells stably expressing hOTR-GFP; assay type: cell-based; conditions: 1 h stimulation at 37° C., normalized to maximum OT response
T1 construct: expressed in transfected cells; host or cells: HEK293 (stably transfected, G418 selection)
T1 sequence (P30559 1-389): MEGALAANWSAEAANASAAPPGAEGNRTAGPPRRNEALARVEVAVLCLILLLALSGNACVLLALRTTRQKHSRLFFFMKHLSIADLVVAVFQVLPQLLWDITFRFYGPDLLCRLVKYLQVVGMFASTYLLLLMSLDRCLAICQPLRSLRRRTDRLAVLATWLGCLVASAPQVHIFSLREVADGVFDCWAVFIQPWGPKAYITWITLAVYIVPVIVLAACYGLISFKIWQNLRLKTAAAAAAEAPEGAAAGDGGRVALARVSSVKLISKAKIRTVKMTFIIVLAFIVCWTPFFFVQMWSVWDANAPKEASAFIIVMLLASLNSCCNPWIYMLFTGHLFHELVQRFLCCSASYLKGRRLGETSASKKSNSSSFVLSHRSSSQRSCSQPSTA
Experimental: Cell culture for functional assays.
Measurement of inositol phosphate one (IP-1) accumulation. HEK293 cells were cultured in DMEM supplemented with 10% FBS and penicillin/streptomycin (100 U mL^−1) at 37° C. and 5% CO2. Cells were transferred into white opaque 384-well plates (CellStar®, Greiner, Austria) at ˜10,000 cells per well 48 h prior to measurement. Quantitative measurements of receptor-mediated IP-1 were performed by competitive immunoassay utilizing the IP-One assay kit [9]. HEK293 cells were assayed as per the manufacturer's protocol. Briefly, at the time of analysis, the culture media was removed and replaced with IP-1 stimulation buffer. Cells were allowed to equilibrate in the stimulation buffer at 37° C. for 15 min, followed by addition of peptide ligands (to final concentrations of 1 μM-10 μM) and subsequent stimulation for 1 h at 37° C. The stimulation was terminated by lysis and the simultaneous addition of homogenous time-resolved fluorescence resonance energy transfer reagents. The lysates were incubated for 1 h at 25° C. Fluorescence emission measurements at 620 nm and 665 nm were performed using a Spark Multimode plate reader (Tecan, Switzerland) at an excitation wavelength of 340 nm. Results were analyzed as a ratio of fluorescence intensities of 665 nm to 620 nm. […]

[3] = in vitro; conditions: simulated gi fluid, pH 6.8
Experimental: as §1, §2, §3, §4

[4] = in vitro; conditions: simulated gi fluid

SMILES | SIF stability [fold OT] [1] | further results
CC[C@H](C)[C@@H]1NC(=O)[C@H](Cc2ccc(OC)cc2)NC(=O)CCCSC[C@@H](C(=O)N(CC(=O)N[C@@H](CNC(C)=O)C(=O)NCC(N)=O)Cc2ccc(F)cc2)NC(=O)[C@H](CC(N)=O)NC(=O)[C@H](CCC(N)=O)NC1=O [Compound 8] (Y(Me)IQNC[N(4-F-Bzl)Gly][Dap](Ac)G-NH2; linker N-5 via X1) | 10-100 fold OT | EC50 [2]: > 500 nM
CC[C@H](C)[C@@H]1NC(=O)[C@](C)(Cc2ccc(O)cc2)NC(=O)CCCSC[C@@H](C(=O)N2CCC[C@H]2C(=O)N[C@@H](CNC(C)=O)C(=O)NCC(N)=O)NC(=O)[C@H](CC(N)=O)NC(=O)[C@H](CCC(N)=O)NC1=O [Compound 9] ([αMeY]IQNCP[Dap](Ac)G-NH2; linker N-5 via X1) | >100 fold OT | –
CC[C@H](C)[C@@H]1NC(=O)[C@](C)(Cc2ccccc2)NC(=O)CCCSC[C@@H](C(=O)N2CCC[C@H]2C(=O)N[C@@H](CNC(C)=O)C(=O)NCC(N)=O)NC(=O)[C@H](CC(N)=O)NC(=O)[C@H](CCC(N)=O)NC1=O [Compound 10] | >100 fold OT | –
COc1ccc(C[C@@H]2NC(=O)CCCSC[C@@H](C(=O)N3CCC[C@H]3C(=O)N[C@@H](CNC(C)=O)C(=O)NCC(N)=O)NC(=O)[C@H](CC(N)=O)NC(=O)[C@H](CCC(N)=O)NC(=O)[C@H](C3CCCC3)NC2=O)cc1 [Compound 14] (Y(Me)[Gly(cPent)]QNCP[Dap](Ac)G-NH2; linker N-5 via X1) | >100 fold OT | –
CC(=O)NC[C@H](NC(=O)[C@@H]1CCCN1C(=O)[C@@H]1CSCCCC(=O)N[C@@H](Cc2ccc(O)cc2)C(=O)N[C@@](C)(C(C)C)C(=O)N[C@@H](CCC(N)=O)C(=O)N[C@@H](CC(N)=O)C(=O)N1)C(=O)NCC(N)=O [Compound 15] (Y[αMeV]QNCP[Dap](Ac)G-NH2; linker N-5 via X1) | >100 fold OT | –
CC[C@H](C)[C@@H]1NC(=O)[C@](C)(Cc2ccc(O)cc2)NC(=O)CCCSC[C@@H](C(=O)N2CCC[C@H]2C(=O)N[C@@H](CCCCNC(C)=O)C(=O)NCC(N)=O)NC(=O)[C@H](CC(N)=O)NC(=O)[C@H](CCC(N)=O)NC1=O [Compound 16] ([αMeY]IQNCPK(Ac)G-NH2; linker N-5 via X1) | >100 fold OT | –
CC[C@H](C)[C@@H]1NC(=O)[C@](C)(Cc2ccc(O)cc2)NC(=O)CCCSC[C@@H](C(=O)N2CSC[C@H]2C(=O)N[C@@H](CCCCNC(C)=O)C(=O)NCC(N)=O)NC(=O)[C@H](CC(N)=O)NC(=O)[C@H](CCC(N)=O)NC1=O [Compound 17] ([αMeY]IQNC[Thz]K(Ac)G-NH2; linker N-5 via X1) | >100 fold OT | –
CC(=O)NCCCC[C@H](NC(=O)[C@@H]1CSCN1C(=O)[C@@H]1CSCCCC(=O)N[C@@](C)(Cc2ccc(O)cc2)C(=O)N[C@@H](C2CCCC2)C(=O)N[C@@H](CCC(N)=O)C(=O)N[C@@H](CC(N)=O)C(=O)N1)C(=O)NCC(N)=O [Compound 18] ([αMeY][Gly(cPent)]QNC[Thz]K(Ac)G-NH2; linker N-5 via X1) | >100 fold OT | –
CC(=O)NCCCC[C@H](NC(=O)[C@@H]1CCCN1C(=O)[C@@H]1CSCCCC(=O)N[C@@H](Cc2ccc(O)cc2)C(=O)N[C@@](C)(C(C)C)C(=O)N[C@@H](CCC(N)=O)C(=O)N[C@@H](CC(N)=O)C(=O)N1)C(=O)NCC(N)=O [Compound 19] (Y[αMeV]QNCPK(Ac)G-NH2; linker N-5 via X1) | >100 fold OT | –
CC(=O)NCCCC[C@H](NC(=O)[C@@H]1CSCN1C(=O)[C@@H]1CSCCCC(=O)N[C@@H](Cc2ccc(O)cc2)C(=O)N[C@@](C)(C(C)C)C(=O)N[C@@H](CCC(N)=O)C(=O)N[C@@H](CC(N)=O)C(=O)N1)C(=O)NCC(N)=O [Compound 20] (Y[αMeV]QNC[Thz]K(Ac)G-NH2; linker N-5 via X1) | > 100 fold OT | –
COc1ccc(C[C@@H]2NC(=O)CCCSC[C@@H](C(=O)N3CCC[C@H]3C(=O)N[C@@H](CCCCNC(C)=O)C(=O)NCC(N)=O)NC(=O)[C@H](CC(N)=O)NC(=O)[C@H](CCC(N)=O)NC(=O)[C@H](C3CCCC3)NC2=O)cc1 [Compound 21] (Y(Me)[Gly(cPent)]QNCPK(Ac)G-NH2; linker N-5 via X1) | >100 fold OT | –
CC[C@H](C)[C@@H]1NC(=O)[C@H](Cc2ccc(OC)cc2)NC(=O)CCCSC[C@@H](C(=O)N2CSC[C@H]2C(=O)N[C@@H](CCCCNC(C)=O)C(=O)NCC(N)=O)NC(=O)[C@H](CC(N)=O)NC(=O)[C@H](CCC(N)=O)NC1=O [Compound 22] (Y(Me)IQNC[Thz]K(Ac)G-NH2; linker N-5 via X1) | >100 fold OT | –
COc1ccc(C[C@@H]2NC(=O)CCCSC[C@@H](C(=O)N3CSC[C@H]3C(=O)N[C@@H](CCCCNC(C)=O)C(=O)NCC(N)=O)NC(=O)[C@H](CC(N)=O)NC(=O)[C@H](CCC(N)=O)NC(=O)[C@H](C3CCCC3)NC2=O)cc1 [Compound 23] (Y(Me)[Gly(cPent)]QNC[Thz]K(Ac)G-NH2; linker N-5 via X1) | >100 fold OT | –
CC[C@H](C)[C@@H]1NC(=O)[C@H](Cc2ccc(O)cc2)NC(=O)[C@@H](N)CSSC[C@@H](C(=O)N2CCC[C@H]2C(=O)N[C@@H](CC(C)C)C(=O)NCC(N)=O)NC(=O)[C@H](CC(N)=O)NC(=O)[C@H](CCC(N)=O)NC1=O [OT, oxytocin] | – | half-life at 50 µM [3]: 8 ± 1 min; half-life [4]: > 1440 min

Further lines, with some results ahead:

SIF stability [fold OT] [1] | SMILES | further results
10-100 fold OT | CC[C@H](C)[C@@H]1NC(=O)[C@H](Cc2ccc(O)cc2)NC(=O)[C@@H](N)CSSC[C@@H](C(=O)N2CCC[C@H]2C(=O)N[C@@H](CCCCNC(C)=O)C(=O)NCC(N)=O)NC(=O)[C@H](CC(N)=O)NC(=O)[C@H](CCC(N)=O)NC1=O [Compound 1] | –
10-100 fold OT | CC[C@H](C)[C@@H]1NC(=O)[C@H](Cc2ccc(O)cc2)NC(=O)[C@@H](N)CSSC[C@@H](C(=O)N2CCC[C@H]2C(=O)N[C@@H](CNC(C)=O)C(=O)NCC(N)=O)NC(=O)[C@H](CC(N)=O)NC(=O)[C@H](CCC(N)=O)NC1=O [Compound 2] | –
10-100 fold OT | CC[C@H](C)[C@@H]1NC(=O)[C@H](Cc2ccc(O)cc2)NC(=O)[C@@H](N)CSSC[C@@H](C(=O)N2CCC[C@H]2C(=O)N[C@@](C)(CC(C)C)C(=O)NCC(N)=O)NC(=O)[C@H](CC(N)=O)NC(=O)[C@H](CCC(N)=O)NC1=O [Compound 3] | –
10-100 fold OT | CC[C@H](C)[C@@H]1NC(=O)[C@H](Cc2ccc(O)cc2)NC(=O)[C@@H](N)CSSC[C@@H](C(=O)N2CCC[C@H]2C(=O)N[C@H](CC(=O)NCC(N)=O)CC(C)C)NC(=O)[C@H](CC(N)=O)NC(=O)[C@H](CCC(N)=O)NC1=O [Compound 4] | –
>100 fold OT | CC[C@H](C)[C@@H]1NC(=O)[C@H](Cc2ccc(OC)cc2)NC(=O)CCCSC[C@@H](C(=O)N2CCC[C@H]2C(=O)N[C@@H](CCCCNC(C)=O)C(=O)NCC(N)=O)NC(=O)[C@H](CC(N)=O)NC(=O)[C@H](CCC(N)=O)NC1=O [Compound 5] (Y(Me)IQNCPK(Ac)G-NH2; linker N-5 via X1) | –
>100 fold OT | CC[C@H](C)[C@@H]1NC(=O)[C@H](Cc2ccc(OC)cc2)NC(=O)CCCSC[C@@H](C(=O)N2CCC[C@H]2C(=O)N[C@@H](CNC(C)=O)C(=O)NCC(N)=O)NC(=O)[C@H](CC(N)=O)NC(=O)[C@H](CCC(N)=O)NC1=O [Compound 6] (Y(Me)IQNCP[Dap](Ac)G-NH2; linker N-5 via X1) | –
>100 fold OT | CC[C@H](C)[C@@H]1NC(=O)[C@H](Cc2ccc(OC)cc2)NC(=O)CCCSC[C@@H](C(=O)N2CCC[C@H]2C(=O)N[C@@](C)(CC(C)C)C(=O)NCC(N)=O)NC(=O)[C@H](CC(N)=O)NC(=O)[C@H](CCC(N)=O)NC1=O [Compound 7] (Y(Me)IQNCP[αMeL]G-NH2; linker N-5 via X1) | –
10-100 fold OT | CC[C@H](C)[C@@H]1NC(=O)[C@H](Cc2ccc(C)cc2)NC(=O)CCCSC[C@@H](C(=O)N2CCC[C@H]2C(=O)N[C@@H](CNC(C)=O)C(=O)NCC(N)=O)NC(=O)[C@H](CC(N)=O)NC(=O)[C@H](CCC(N)=O)NC1=O [Compound 11] | –
>100 fold OT | CC[C@H](C)[C@@H]1NC(=O)[C@H](Cc2ccc(C(F)(F)F)cc2)NC(=O)CCCSC[C@@H](C(=O)N2CCC[C@H]2C(=O)N[C@@H](CNC(C)=O)C(=O)NCC(N)=O)NC(=O)[C@H](CC(N)=O)NC(=O)[C@H](CCC(N)=O)NC1=O [Compound 12] | –
> 100 fold OT | CC[C@H](C)[C@@H]1NC(=O)[C@H](Cc2ccc(OC)cc2)NC(=O)CCCSC[C@@H](C(=O)N2CCC[C@H]2C(=O)N[C@@H](CNC(=O)C(C)(C)C)C(=O)NCC(N)=O)NC(=O)[C@H](CC(N)=O)NC(=O)[C@H](CCC(N)=O)NC1=O [Compound 13] (Y(Me)IQNCP[Dap](Piv)G-NH2; linker N-5 via X1) | –
